Assay results from US9688638B2, “Opioid agonists and uses thereof” (priority 2013, dated 2017).
pEC50, pIC50, pKi: −log10 of the molar value. Where “and” joins values, the source holds several entries; their conditions need not be identical. Identical values can stand only once. Like-named read-outs stand apart in the source and are kept apart here.

Key:
[1] = target: KOR (Homo sapiens (Human), UniProt P41145); assay: cAMP accumulation assay, forskolin-stimulated CHO-K1 cells stably expressing KOR; format: cell-based; conditions: for EC50: inhibition of cAMP accumulation, forskolin 20 μM, read-out: EC50 cAMP (nM)-KOR
Procedure: Inhibition of cAMP accumulation by select compounds was measured in forskolin-stimulated CHO-K1 cells stably expressing KOR. CHO-K1 cells stably expressing KOR were harvested using Invitrogen Cell Dissociation Buffer, and then centrifuged at 1200 rpm for five minutes. The supernatant was aspirated and cells were resuspended in assay buffer to a density of 4×10^5 cells/mL. 25 μL of cells were added into a white half-area 96 well plate. Fourteen point serial dilutions of test compounds were carried out in assay buffer (PBS with 0.5 mM IBMX). Ketazocine was used as a positive control for each assay. 12.5 μL of compound was added to the cells in duplicate for each test concentration. The cells were then stimulated with 12.5 μL forskolin at a final concentration 20 μM. Cells were incubated for 45 minutes in a 37° C., 5% CO2 water jacketed incubator. CisBio HTRF cAMP assay reagent was used for cAMP quantitation. Two hours after substrate addition, signal at 665/615 nm was measured using the Perkin Elmer Victor X4 HTRF reader. Data analysis was done using GraphPad Prism, sigmoidal dose-response (variable slope) curve fitting.

[2] = target: recombinant human kappa (KOR) opioid receptor (Homo sapiens (Human), UniProt P41145); assay: biochemical; format: binding
[3] = test system: Swiss Albino or CD-1 male mice; assay: Acetic acid writhing (AAW) analgesic assay; format: in vivo; conditions: for inhibition in vivo at 3 mg/kg / inhibition in vivo at 30 mg/kg / inhibition in vivo at 10 mg/kg / inhibition in vivo at 0.3 mg/kg: Mus musculus, 20 min, read-out: AAW % Efficacy
Procedure: Approaches for evaluating analgesic activity of a compound of the present invention in vivo include a “writhing test.” Briefly, the compound to be tested is administered [by, for example, injection (e.g., subcutaneous injection)] to the mouse. Thereafter, a 0.5% acetic acid solution is administered (i.p.) to a mouse and the numbers of writhing responses are counted for twenty minutes. Antinociception is quantified as reduction in the number of writhes respective to vehicle.
An analgesic assay was used to determine whether a given compound can reduce and/or prevent visceral pain in mice. The assay utilizes Swiss Albino or CD-1 male mice (5-10 mice per group), each mouse being approximately 0.015-0.030 kg on the study day. Mice were treated according to standard protocols.
The animal was given an intraperitoneal (IP) injection of an irritant (acetic acid) that induces “writhing” which may include: contractions of the abdomen, twisting and turning of the trunk, arching of the back and the extension of the hindlimbs. Mice are given a single IP injection (0.1 mL/10 g bodyweight) of a 0.5% acetic acid solution. After the injection the animals were returned to their observation enclosure and their behavior was observed. Contractions were counted between 0 and 20 minutes after the injection. The animals were used once. In certain instances, the test articles were administered at multiple doses to determine a dose response curve.
Table 4 provides the results for certain compounds of the present invention that were administered subcutaneously. Table 5 provides the results for certain compounds of the present invention that were administered orally.

SMILES: COCCOCCOCCOCCOCCNc1ccc2c(c1)[C@]1(C)CCN(CC3CC3)[C@H](C2=O)[C@@H]1C [Compound 2, (2S,6R,11R)-3-(Cyclopropylmethyl)-6,11-dimethyl-8-(2,5,8,11,14-pentaoxahexadecan-16-ylamino)-3,4,5,6-tetrahydro-2,6-methano-3-benzazocin-1(2H)-one]
- EC50 [1]: 139 nM
- pIC50 [2]: 5.62
- pKi [2]: 6.26

SMILES: COCCOCCOCCOCCOCCOCCOCCNc1ccc2c(c1)[C@]1(C)CCN(CC3CC3)[C@H](C2=O)[C@@H]1C [Compound 3, (2S,6R,11R)-3-(Cyclopropylmethyl)-8-(2,5,8,11,14,17,20-heptaoxadocosan-22-ylamino)-6,11-dimethyl-3,4,5,6-tetrahydro-2,6-methano-3-benzazocin-1(2H)-one]
- EC50 [1]: 122 nM
- pKi ([2]; Cheng Prusoff correction, [3H]Diprenorphine 1 nM, CHO-K1 membranes, read-out: Kappa receptor binding Ki): 6.11
- pIC50 ([2]; [3H]Diprenorphine 1 nM, CHO-K1 membranes, read-out: Kappa receptor binding IC50): 5.48

SMILES: COCCOCCOCCOCCOCCOCCOCCOc1ccc2c(c1)[C@]1(C)CCN(CC3CC3)[C@H](C2=O)[C@@H]1C [Compound 6, (2S,6R,11R)-3-(Cyclopropylmethyl)-8-(2,5,8,11,14,17,20-heptaoxadocosan-22-yloxy)-6,11-dimethyl-3,4,5,6-tetrahydro-2,6-methano-3-benzazocin-1(2H)-one]
- pEC50 [1]: 6.45
- pIC50 [2]: 5.22
- pKi [2]: 5.85

SMILES: COCCOCCOCCOCCOCCOc1ccccc1Nc1ccc2c(c1)[C@]1(C)CCN(CC3CC3)[C@H](C2=O)[C@@H]1C [Compound 7, (2S,6R,11R)-8-((2-(2,5,8,11,14-pentaoxahexadecan-16-yloxy)phenyl)amino)-3-(cyclopropylmethyl)-6,11-dimethyl-3,4,5,6-tetrahydro-2,6-methanobenzo[d]azocin-1(2H)-one]
- inhibition in vivo at 3 mg/kg ([3]; sc, subcutaneous, 3 mg/kg): 38.8%
- inhibition in vivo at 30 mg/kg ([3]; sc, subcutaneous): 84.8%
- AAW percent efficacy, outlier data removed ([3]; subcutaneous, 3 mg/kg): 31.95

SMILES: COCCOCCOCCOCCOCCOc1cccc(Nc2ccc3c(c2)[C@]2(C)CCN(CC4CC4)[C@H](C3=O)[C@@H]2C)c1 [Compound 8, (2S,6R,11R)-8-((3-(2,5,8,11,14-pentaoxahexadecan-16-yloxy)phenyl)amino)-3-(cyclopropylmethyl)-6,11-dimethyl-3,4,5,6-tetrahydro-2,6-methanobenzo[d]azocin-1(2H)-one]
- inhibition in vivo at 3 mg/kg ([3]; sc, subcutaneous, 3 mg/kg): 38%
- inhibition in vivo at 30 mg/kg ([3]; sc, subcutaneous): 100%
- AAW percent efficacy, outlier data removed ([3]; subcutaneous, 3 mg/kg): 31.07

SMILES: COCCOCCOCCOCCOCCOc1ccc(Nc2ccc3c(c2)[C@]2(C)CCN(CC4CC4)[C@H](C3=O)[C@@H]2C)cc1 [Compound 9, (2S,6R,11R)-8-((4-(2,5,8,11,14-pentaoxahexadecan-16-yloxy)phenyl)amino)-3-(cyclopropylmethyl)-6,11-dimethyl-3,4,5,6-tetrahydro-2,6-methanobenzo[d]azocin-1(2H)-one]
- inhibition in vivo at 10 mg/kg ([3]; po, oral, 10 mg/kg): 38.5%
- inhibition in vivo at 0.3 mg/kg ([3]; sc, subcutaneous, 0.3 mg/kg): 13.3%
- inhibition in vivo at 3 mg/kg ([3]; sc, subcutaneous, 3 mg/kg): 67.8%
- inhibition in vivo at 10 mg/kg ([3]; sc, subcutaneous, 10 mg/kg): 95.4%
- inhibition in vivo at 30 mg/kg ([3]; sc, subcutaneous): 99.2%
- AAW percent efficacy, outlier data removed ([3]; subcutaneous, 0.3 mg/kg): 13.18
- AAW percent efficacy, outlier data removed ([3]; subcutaneous, 3 mg/kg): 64.20 and 57.09
- AAW percent efficacy, outlier data removed ([3]; subcutaneous, 10 mg/kg): 94.93

SMILES: COCCOCCOCCOCCOCCNc1ccc(Nc2ccc3c(c2)[C@]2(C)CCN(CC4CC4)[C@H](C3=O)[C@@H]2C)cc1 [Compound 10, (2S,6R,11R)-8-((4-(2,5,8,11,14-pentaoxahexadecan-16-ylamino)phenyl)amino)-3-(cyclopropylmethyl)-6,11-dimethyl-3,4,5,6-tetrahydro-2,6-methanobenzo[d]azocin-1(2H)-one]
- inhibition in vivo at 30 mg/kg ([3]; sc, subcutaneous): 100%
- AAW % Efficacy ([3]; subcutaneous, 3 mg/kg): 34.0%
- AAW percent efficacy, outlier data removed ([3]; subcutaneous, 3 mg/kg): 26.63

SMILES: COCCOCCOCCOCCOCCNc1cccc(Nc2ccc3c(c2)[C@]2(C)CCN(CC4CC4)[C@H](C3=O)[C@@H]2C)c1 [Compound 11, (2S,6R,11R)-8-((3-(2,5,8,11,14-pentaoxahexadecan-16-ylamino)phenyl)amino)-3-(cyclopropylmethyl)-6,11-dimethyl-3,4,5,6-tetrahydro-2,6-methanobenzo[d]azocin-1(2H)-one]
- inhibition in vivo at 10 mg/kg ([3]; po, oral, 10 mg/kg): 31.2%
- inhibition in vivo at 0.3 mg/kg ([3]; sc, subcutaneous, 0.3 mg/kg): 21.1%
- inhibition in vivo at 3 mg/kg ([3]; sc, subcutaneous, 3 mg/kg): 62.2%
- inhibition in vivo at 10 mg/kg ([3]; sc, subcutaneous, 10 mg/kg): 99.1%
- inhibition in vivo at 30 mg/kg ([3]; sc, subcutaneous): 100%
- AAW percent efficacy, outlier data removed ([3]; subcutaneous, 0.3 mg/kg): 12.30
- AAW percent efficacy, outlier data removed ([3]; subcutaneous, 3 mg/kg): 56.21 and 60.30
- AAW percent efficacy, outlier data removed ([3]; subcutaneous, 10 mg/kg): 99.00

SMILES: COCCOCCOCCOCCOCCNc1nc2cc3c(cc2s1)C(=O)[C@@H]1[C@H](C)[C@@]3(C)CCN1CC1CC1 [Compound 13, (6S,10R,12R)-2-(2,5,8,11,14-pentaoxahexadecan-16-ylamino)-7-(cyclopropylmethyl)-10,12-dimethyl-7,8,9,10-tetrahydro-6,10-methanothiazolo[4′,5′:4,5]benzo[1,2-d]azocin-5(6H)-one]
- inhibition in vivo at 10 mg/kg ([3]; sc, subcutaneous, 10 mg/kg): 40.2%

SMILES: COCCOCCN1CC[C@@]2(C)c3cc(O)ccc3C(=O)[C@@H]1[C@@H]2C [Compound 14, (2S,6R,11R)-8-hydroxy-3-(2-(2-methoxyethoxy)ethyl)-6,11-dimethyl-3,4,5,6-tetrahydro-2,6-methanobenzo[d]azocin-1(2H)-one]
- inhibition in vivo at 10 mg/kg ([3]; sc, subcutaneous, 10 mg/kg): 13.2%

SMILES: COCCOCC(=O)Nc1ccc2c(c1)[C@]1(C)CCN(CC3CC3)[C@H](C2=O)[C@@H]1C [Compound 15, N-((2S,6R,11R)-3-(cyclopropylmethyl)-6,11-dimethyl-1-oxo-1,2,3,4,5,6-hexahydro-2,6-methanobenzo[d]azocin-8-yl)-2-(2-methoxyethoxy)acetamide]
- inhibition in vivo at 10 mg/kg ([3]; sc, subcutaneous, 10 mg/kg): 100%

SMILES: COCCNC(=O)c1ccc2c(c1)[C@]1(C)CCN(CC3CC3)[C@H](C2=O)[C@@H]1C [Compound 16, (2S,6R,11R)-3-(cyclopropylmethyl)-N-(2-methoxyethyl)-6,11-dimethyl-1-oxo-1,2,3,4,5,6-hexahydro-2,6-methanobenzo[d]azocine-8-carboxamide]
- inhibition in vivo at 10 mg/kg ([3]; sc, subcutaneous, 10 mg/kg): 26.4%

SMILES: COCCOCC(=O)NCc1ccc2c(c1)[C@]1(C)CCN(CC3CC3)C(C2=O)[C@@H]1C [Compound 17, N,N-(((2S,6R,11R)-3-(cyclopropylmethyl)-6,11-dimethyl-1-oxo-1,2,3,4,5,6-hexahydro-2,6-methanobenzo[d]azocin-8-yl)methyl)-2-(2-methoxyethoxy)acetamide]
- inhibition in vivo at 10 mg/kg ([3]; sc, subcutaneous, 10 mg/kg): 23.3%

SMILES: COCCOCCNCc1ccc2c(c1)[C@]1(C)CCN(CC3CC3)[C@H](C2=O)[C@@H]1C [Compound 18, (2S,6R,11R)-3-(cyclopropylmethyl)-8-(((2-(2-methoxyethoxy)ethyl)amino)methyl)-6,11-dimethyl-3,4,5,6-tetrahydro-2,6-methanobenzo[d]azocin-1(2H)-one]
- inhibition in vivo at 10 mg/kg ([3]; sc, subcutaneous, 10 mg/kg): 31.9%

SMILES: COCCOCCOCCOCCOCCOc1c(O)ccc2c1[C@]1(C)CCN(CC3CC3)[C@H](C2=O)[C@@H]1C [Compound 19, (2S,6R,11R)-7-(2,5,8,11,14-pentaoxahexadecan-16-yloxy)-3-(cyclopropylmethyl)-8-hydroxy-6,11-dimethyl-3,4,5,6-tetrahydro-2,6-methanobenzo[d]azocin-1(2H)-one]
- inhibition in vivo at 10 mg/kg ([3]; sc, subcutaneous, 10 mg/kg): 31.6%

SMILES: COCCOCCOCCOCCOCCO[C@@H]1c2ccc(O)cc2[C@]2(C)CCN(CC3CC3)[C@H]1[C@@H]2C [Compound 25, (1R,2S,6R,11R)-1-(2,5,8,11,14-pentaoxahexadecan-16-yloxy)-3-(cyclopropylmethyl)-6,11-dimethyl-1,2,3,4,5,6-hexahydro-2,6-methanobenzo[d]azocin-8-ol]
- EC50 [1]: 195 nM
- pKi [2]: 6.02

SMILES: C[C@H]1[C@H]2C(=O)c3cc4sc(N)nc4cc3[C@]1(C)CCN2CC1CC1 [Step 1 of 13, (6S,10R,12R)-2-amino-7-(cyclopropylmethyl)-10,12-dimethyl-7,8,9,10-tetrahydro-6,10-methanothiazolo[4′,5′:4,5]benzo[1,2-d]azocin-5(6H)-one]
- inhibition in vivo at 10 mg/kg ([3]; sc, subcutaneous, 10 mg/kg): 100%
